{"source": "patent US20230085307A1", "about": "“PYRIDAZINONE COMPOUND AND HERBICIDE” (NISSAN CHEMICAL CORPORATION, priority 2019, published 2023)", "key": {"late watergrass [1]": {"system": "late watergrass", "test": "Test Example 1: herbicidal activity, application before weed generation under submerged conditions (Table 16, symbol A)", "format": "in vivo, late watergrass (Echinochloa oryzicola)", "details": "amount of applied herbicide 320 g/ha", "how_it_was_run": "(§1)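 Alluvial soil was flooded to 4 cm depth, weed seeds were sown mixed and 2.5-leaf rice seedlings were transplanted. On sowing day, the compound's emulsion, diluted in water to a set dose, was applied to the water surface. Plants grew at 25–30 °C and were scored 0–5 after three weeks.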"}, "Japanese bulrush [2]": {"system": "Japanese bulrush", "test": "Test Example 2: herbicidal activity, application during weed generation under submerged conditions (Table 17, symbol B)", "format": "in vivo, Japanese bulrush (Schoenoplectus juncoides)", "details": "AAH 320 g/ha; application during weed generation, submerged conditions", "how_it_was_run": "(§2)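 In this pot test, flooded alluvial soil (water depth 4 cm) holds all three species sown as a mixture. Once seedlings have one to two leaves, the compound's emulsion, thinned with water to the intended dose, is poured on the water; grading follows after three weeks on the earlier criteria.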"}, "wild oat": {"system": "wild oat", "test": "Test Example 5: herbicidal effect by foliage application, plastic box (Table 20, symbol I)", "format": "in vivo, wild oat (Avena fatua)", "details": "foliage application after 14-day growth, evaluated three weeks after application", "how_it_was_run": "(§3)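 Plants were sown into sterilized diluvial soil under about 1.5 cm cover and kept in a greenhouse at 25° C. to 30° C. Fourteen days on, foliage received an even spray of the diluted emulsion. Herbicidal or crop effect was judged three weeks afterwards.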"}, "blackgrass": {"system": "blackgrass", "test": "Test Example 5: herbicidal effect by foliage application, plastic box (Table 20, symbol J)", "format": "in vivo, blackgrass (Alopecurus myosuroides)", "details": "foliage application after 14-day growth, evaluated three weeks after application", "how_it_was_run": "as §3"}, "lambsquarters": {"system": "lambsquarters", "test": "Test Example 5: herbicidal effect by foliage application, plastic box (Table 20, symbol O)", "format": "in vivo, lambsquarters (Chenopodium album)", "details": "foliage application after 14-day growth, evaluated three weeks after application", "how_it_was_run": "as §3"}, "barnyard grass [3]": {"system": "barnyard grass", "test": "Test Example 5: herbicidal effect by foliage application, plastic box (Table 20, symbol H)", "format": "in vivo, barnyard grass (Echinochloa crus-galli)", "details": "foliage application after 14-day growth, evaluated three weeks after application", "how_it_was_run": "as §3"}, "late watergrass [4]": {"system": "late watergrass", "test": "Test Example 2: herbicidal activity, application during weed generation under submerged conditions (Table 17, symbol A)", "format": "in vivo, late watergrass (Echinochloa oryzicola)", "details": "AAH 320 g/ha; application during weed generation, submerged conditions", "how_it_was_run": "as §2"}, "Italian ryegrass": {"system": "Italian ryegrass", "test": "Test Example 5: herbicidal effect by foliage application, plastic box (Table 20, symbol K)", "format": "in vivo, Italian ryegrass (Lolium multiflorum)", "details": "foliage application after 14-day growth, evaluated three weeks after application", "how_it_was_run": "as §3"}, "southern crabgrass": {"system": "southern crabgrass", "test": "Test Example 5: herbicidal effect by foliage application, plastic box (Table 20, symbol F)", "format": "in vivo, southern crabgrass (Digitaria ciliaris)", "details": "foliage application after 14-day growth, evaluated three weeks after application", "how_it_was_run": "as §3"}, "windgrass": {"system": "windgrass", "test": "Test Example 5: herbicidal effect by foliage application, plastic box (Table 20, symbol L)", "format": "in vivo, windgrass (Apera spica-venti)", "details": "foliage application after 14-day growth, evaluated three weeks after application", "how_it_was_run": "as §3"}, "rice flat sedge": {"system": "rice flat sedge", "test": "Test Example 3: herbicidal effect by foliage application, Wagner pot (Table 18, symbol E)", "format": "in vivo, rice flat sedge (Cyperus iria)", "details": "320 g/ha", "how_it_was_run": "(§4)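 Plants were sown in alluvial soil held under 0.1–0.5 cm standing water and grown 14 days in a greenhouse at 25–30 °C. An emulsifiable formulation, water-diluted to the set dose, was then sprayed onto the foliage, and effects were scored three weeks later using previously defined criteria.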"}, "green foxtail": {"system": "green foxtail", "test": "Test Example 5: herbicidal effect by foliage application, plastic box (Table 20, symbol G)", "format": "in vivo, green foxtail (Setaria viridis)", "details": "foliage application after 14-day growth, evaluated three weeks after application", "how_it_was_run": "as §3"}, "persian speedwell": {"system": "persian speedwell", "test": "Test Example 5: herbicidal effect by foliage application, plastic box (Table 20, symbol R)", "format": "in vivo, Persian speedwell (Veronica persica)", "details": "foliage application after 14-day growth, evaluated three weeks after application", "how_it_was_run": "as §3"}, "velvetleaf": {"system": "velvetleaf", "test": "Test Example 5: herbicidal effect by foliage application, plastic box (Table 20, symbol M)", "format": "in vivo, velvetleaf (Abutilon theophrasti)", "details": "foliage application after 14-day growth, evaluated three weeks after application", "how_it_was_run": "as §3"}, "Chinese sprangletop": {"system": "Chinese sprangletop", "test": "Test Example 3: herbicidal effect by foliage application, Wagner pot (Table 18, symbol D)", "format": "in vivo, chinese sprangletop (Leptochloa chinensis)", "details": "320 g/ha", "how_it_was_run": "as §4"}, "oval-leafed pondweed [5]": {"system": "oval-leafed pondweed", "test": "Test Example 2: herbicidal activity, application during weed generation under submerged conditions (Table 17, symbol C)", "format": "in vivo, oval-leafed pondweed (Monochoria vaginalis)", "details": "AAH 320 g/ha; application during weed generation, submerged conditions", "how_it_was_run": "as §2"}, "barnyard grass [6]": {"system": "barnyard grass", "test": "Test Example 3: herbicidal effect by foliage application, Wagner pot (Table 18, symbol H)", "format": "in vivo, barnyard grass (Echinochloa crus-galli)", "details": "320 g/ha", "how_it_was_run": "as §4"}, "redroot pigweed": {"system": "redroot pigweed", "test": "Test Example 5: herbicidal effect by foliage application, plastic box (Table 20, symbol N)", "format": "in vivo, redroot pigweed (Amaranthus retroflexus)", "details": "foliage application after 14-day growth, evaluated three weeks after application", "how_it_was_run": "as §3"}, "Japanese bulrush [7]": {"system": "Japanese bulrush", "test": "Test Example 1: herbicidal activity, application before weed generation under submerged conditions (Table 16, symbol B)", "format": "in vivo, Japanese bulrush (Schoenoplectus juncoides)", "details": "amount of applied herbicide 320 g/ha", "how_it_was_run": "as §1"}, "chickweed": {"system": "chickweed", "test": "Test Example 5: herbicidal effect by foliage application, plastic box (Table 20, symbol P)", "format": "in vivo, common chickweed (Stellaria media)", "details": "foliage application after 14-day growth, evaluated three weeks after application", "how_it_was_run": "as §3"}, "oval-leafed pondweed [8]": {"system": "oval-leafed pondweed", "test": "Test Example 1: herbicidal activity, application before weed generation under submerged conditions (Table 16, symbol C)", "format": "in vivo, oval-leafed pondweed (Monochoria vaginalis)", "details": "amount of applied herbicide 320 g/ha", "how_it_was_run": "as §1"}, "[9]": {"details": "amount of applied herbicide 320 g/ha"}}}
{"molecule": "CCCC(=O)Oc1c(C)nn(C)c(=O)c1-c1c(-c2ccc(Cl)cc2)sc2c(F)cccc12", "note": "[4-041]", "values": [{"measurement": "Herbicidal effect, A: late watergrass", "setting": "late watergrass [1]", "value": "3 (Herbicidal rate of 40% or more and less than 70%)"}, {"measurement": "herbicidal effect rating, B: Japanese bulrush", "setting": "Japanese bulrush [2]", "value": "3 (Herbicidal rate of 40% or more and less than 70%)"}, {"measurement": "herbicidal effect on I: wild oat (evaluation grade 0-5)", "setting": "wild oat; 320 g/ha", "value": "3 (Herbicidal rate of 40% or more and less than 70%)"}, {"measurement": "herbicidal effect on J: blackgrass (evaluation grade 0-5)", "setting": "blackgrass; 320 g/ha", "value": "1 (Herbicidal rate of 5% or more and less than 20%)"}, {"measurement": "herbicidal effect on O: lambsquarters (evaluation grade 0-5)", "setting": "lambsquarters; 320 g/ha", "value": "3 (Herbicidal rate of 40% or more and less than 70%)"}, {"measurement": "herbicidal effect on H: barnyard grass (evaluation grade 0-5)", "setting": "barnyard grass [3]; 320 g/ha", "value": "4 (Herbicidal rate of 70% or more and less than 90%)"}, {"measurement": "herbicidal effect rating, A: late watergrass", "setting": "late watergrass [4]", "value": "0 (Herbicidal rate of 5% or less (almost no effect))"}, {"measurement": "herbicidal effect on K: Italian ryegrass (evaluation grade 0-5)", "setting": "Italian ryegrass; 320 g/ha", "value": "3 (Herbicidal rate of 40% or more and less than 70%)"}, {"measurement": "herbicidal effect on F: southern crabgrass (evaluation grade 0-5)", "setting": "southern crabgrass; 320 g/ha", "value": "0 (Herbicidal rate of 5% or less (almost no effect))"}, {"measurement": "herbicidal effect on L: windgrass (evaluation grade 0-5)", "setting": "windgrass; 320 g/ha", "value": "4 (Herbicidal rate of 70% or more and less than 90%)"}, {"measurement": "herbicidal effect on rice flat sedge (E)", "setting": "rice flat sedge", "value": "5 (Herbicidal rate of 90% or more (almost completely withered))"}, {"measurement": "herbicidal effect on G: green foxtail (evaluation grade 0-5)", "setting": "green foxtail; 320 g/ha", "value": "3 (Herbicidal rate of 40% or more and less than 70%)"}, {"measurement": "herbicidal effect on R: persian speedwell (evaluation grade 0-5)", "setting": "persian speedwell; 320 g/ha", "value": "5 (Herbicidal rate of 90% or more (almost completely withered))"}, {"measurement": "herbicidal effect on M: velvetleaf (evaluation grade 0-5)", "setting": "velvetleaf; 320 g/ha", "value": "5 (Herbicidal rate of 90% or more (almost completely withered))"}, {"measurement": "herbicidal effect on Chinese sprangletop (D)", "setting": "Chinese sprangletop", "value": "4 (Herbicidal rate of 70% or more and less than 90%)"}, {"measurement": "herbicidal effect rating, C: oval-leafed pondweed", "setting": "oval-leafed pondweed [5]", "value": "0 (Herbicidal rate of 5% or less (almost no effect))"}, {"measurement": "herbicidal effect on barnyard grass (H)", "setting": "barnyard grass [6]", "value": "5 (Herbicidal rate of 90% or more (almost completely withered))"}, {"measurement": "herbicidal effect on N: redroot pigweed (evaluation grade 0-5)", "setting": "redroot pigweed; 320 g/ha", "value": "5 (Herbicidal rate of 90% or more (almost completely withered))"}, {"measurement": "Herbicidal effect, B: Japanese bulrush", "setting": "Japanese bulrush [7]", "value": "0 (Herbicidal rate of 5% or less (almost no effect))"}, {"measurement": "herbicidal effect on P: chickweed (evaluation grade 0-5)", "setting": "chickweed; 320 g/ha", "value": "5 (Herbicidal rate of 90% or more (almost completely withered))"}, {"measurement": "Herbicidal effect, C: oval-leafed pondweed", "setting": "oval-leafed pondweed [8]", "value": "0 (Herbicidal rate of 5% or less (almost no effect))"}]}
{"molecule": "Cc1nn(C)c(=O)c(-c2c(-c3ccc(OC4CCCCO4)cc3)sc3cc(F)c(F)cc23)c1O", "note": "(stereo not drawn) [5-024]", "values": [{"measurement": "Herbicidal effect, A: late watergrass", "setting": "late watergrass [1]", "value": "3 (Herbicidal rate of 40% or more and less than 70%)"}, {"measurement": "herbicidal effect rating, B: Japanese bulrush", "setting": "Japanese bulrush [2]", "value": "2 (Herbicidal rate of 20% or more and less than 40%)"}, {"measurement": "Herbicidal effect by foliage application, I: wild oat", "setting": "wild oat; [9]", "value": "0 (Herbicidal rate of 5% or less (almost no effect))"}, {"measurement": "Herbicidal effect by foliage application, J: blackgrass", "setting": "blackgrass; [9]", "value": "1 (Herbicidal rate of 5% or more and less than 20%)"}, {"measurement": "Herbicidal effect by foliage application, O: lambsquarters", "setting": "lambsquarters; [9]", "value": "5 (Herbicidal rate of 90% or more (almost completely withered))"}, {"measurement": "Herbicidal effect by foliage application, H: barnyard grass", "setting": "barnyard grass [3]; [9]", "value": "3 (Herbicidal rate of 40% or more and less than 70%)"}, {"measurement": "herbicidal effect rating, A: late watergrass", "setting": "late watergrass [4]", "value": "0 (Herbicidal rate of 5% or less (almost no effect))"}, {"measurement": "Herbicidal effect by foliage application, K: Italian ryegrass", "setting": "Italian ryegrass; [9]", "value": "0 (Herbicidal rate of 5% or less (almost no effect))"}, {"measurement": "Herbicidal effect by foliage application, F: southern crabgrass", "setting": "southern crabgrass; [9]", "value": "4 (Herbicidal rate of 70% or more and less than 90%)"}, {"measurement": "Herbicidal effect by foliage application, L: windgrass", "setting": "windgrass; [9]", "value": "2 (Herbicidal rate of 20% or more and less than 40%)"}, {"measurement": "herbicidal effect on rice flat sedge (E)", "setting": "rice flat sedge", "value": "0 (Herbicidal rate of 5% or less (almost no effect))"}, {"measurement": "Herbicidal effect by foliage application, G: green foxtail", "setting": "green foxtail; [9]", "value": "3 (Herbicidal rate of 40% or more and less than 70%)"}, {"measurement": "Herbicidal effect by foliage application, R: persian speedwell", "setting": "persian speedwell; [9]", "value": "5 (Herbicidal rate of 90% or more (almost completely withered))"}, {"measurement": "Herbicidal effect by foliage application, M: velvetleaf", "setting": "velvetleaf; [9]", "value": "3 (Herbicidal rate of 40% or more and less than 70%)"}, {"measurement": "herbicidal effect on Chinese sprangletop (D)", "setting": "Chinese sprangletop", "value": "3 (Herbicidal rate of 40% or more and less than 70%)"}, {"measurement": "herbicidal effect rating, C: oval-leafed pondweed", "setting": "oval-leafed pondweed [5]", "value": "0 (Herbicidal rate of 5% or less (almost no effect))"}, {"measurement": "herbicidal effect on barnyard grass (H)", "setting": "barnyard grass [6]", "value": "4 (Herbicidal rate of 70% or more and less than 90%)"}, {"measurement": "Herbicidal effect by foliage application, N: redroot pigweed", "setting": "redroot pigweed; [9]", "value": "5 (Herbicidal rate of 90% or more (almost completely withered))"}, {"measurement": "Herbicidal effect, B: Japanese bulrush", "setting": "Japanese bulrush [7]", "value": "0 (Herbicidal rate of 5% or less (almost no effect))"}, {"measurement": "Herbicidal effect by foliage application, P: chickweed", "setting": "chickweed; [9]", "value": "5 (Herbicidal rate of 90% or more (almost completely withered))"}, {"measurement": "Herbicidal effect, C: oval-leafed pondweed", "setting": "oval-leafed pondweed [8]", "value": "5 (Herbicidal rate of 90% or more (almost completely withered))"}]}
